Values joined by “and” are separate entries in the source; they are usually repeats but may differ in a detail not shown here. Equal values may be shown once.
Assays:
[1] = system: ulcer formation induced by stress; test: Inhibition of stress ulcer formation (immobilization-water immersion method), oral; type: in vivo, rats; details: for dose dependency of stress ulcer inhibition: 0.3 to 30 mg/kg
Text: Since 50 microns is a common particle diameter in pharmaceutical preparations, it was most surprising that such significant and important advantages resulted. Inhibition activity against stress ulcer in rats of the compound and pharmaceutically acceptable acid addition salts in the finely pulverized form are set forth in Table 2.

rats = test: Acute toxicity (LD50), intraperitoneal injection; type: in vivo; details: dosages up to 3000 mg/kg, average particle diameter about 8 microns
Text: This decrease in toxicity is totally unexpected and represents a significant and important advance in the art.

[2] = Body weight increase inhibition on chronic oral administration; type: in vivo, rats; details: for body weight increase: 10 mg/kg or more per day, chronic oral, rats
Text: A further advantage resulted from body weight increase inhibition which is one of the main side effects of the compound and salts of the present invention. […] This is a side effect of triazines of this type.
The average particle sizes were 8 microns for the compound according our copending application as compared to the same compound having an average particle diameter of 50 microns.

ulcers = test: Clinical experiments: rate of recovery or cure of ulcers in patients; type: in vivo, humans
Procedure: Clinical experiments were conducted wherein patients were given 1, 2 and 4 mg/day of 2,4-diamino-6-(2,5-dichlorophenyl)-1,3,5-triazine in separate groups. There were 133 patients participating in the group and 123 were separately analyzed (groups of 20, 46 and 57). The rate of recovery or cure of ulcers during those clinical trials over the period indicated was as follows: […]

[3] = Clinical experiments: side effects in patients; type: in vivo, humans; details: 4 mg group
Procedure: Clinical experiments were conducted wherein patients were given 1, 2 and 4 mg/day of 2,4-diamino-6-(2,5-dichlorophenyl)-1,3,5-triazine in separate groups. There were 133 patients participating in the group and 123 were separately analyzed (groups of 20, 46 and 57). The rate of recovery or cure of ulcers during those clinical trials over the period indicated was as follows:
Only one side effect was noted. There was an increase in transaminase (GOT and GPT) observed in one case (1.8% of the total) in the 4 mg group.

[4] = Average particle diameter after jet milling, Coulter Counter TA-II; type: physicochemical; details: jet mill PJM-100 NP; dispersed in physiological saline with Tween-80
Procedure: 2,4-diamino-6-(2,5-dichlorophenyl)-1,3,5-triazine and pharmaceutically acceptable acid addition salts thereof may be finely pulverized to achieve the average particle diameter of 20 microns or less by using jet Mill PJM-100NP (Nippon Newmatic MEG Co.). The pulverization is carried out by feeding 2 kg or less of the substance per hour. An average particle diameter of about 8 microns may be prepared in that manner. If necessary, auxiliary pulverizing agents such as starch, anhydrous silicic acid, etc. may be used. In measuring average particle size, the powder is dispersed in physiological saline solution containing one drop of Tween-80 with the aid of an ultrasonic homogenizer for 30 seconds and measured by Coleter Counter TA-II (Coulter Electronics Co., U.S.A.) equipped with aperture tube of 100 microns.
2,4-Diamino-6-(2,5-dichlorophenyl)-1,3,5-triazine is powdered by supplying it at a rate of not more than 2 kg/hour to a Jet Mill PJM-100 NP (Nippon Newmatic Mfg. Co.). The pulverized pharmaceutical is dispersed in a physiological saline solution containing one drop of Tween-80 by the use of ultrasonic homogenizer for 30 seconds and their particle diameter in average is measured by Coulter Counter TA-II (Coleter Eelectronics Co., USA) and the result is about 8 microns.

[5] = system: ulcer formation induced by stress; test: Inhibition of stress ulcer formation (immobilization-water immersion method), oral; type: in vivo, rats; details: average particle diameter about 50 microns; for Inhibition Rate (stress ulcer): three repeat values
[6] = 0.3 mg/kg, finely pulverized form
[7] = 1.0 mg/kg, finely pulverized form
[8] = 3.0 mg/kg, finely pulverized form
[9] = 10 mg/kg, finely pulverized form

Nc1nc(N)nc(-c2cc(Cl)ccc2Cl)n1 [Substance (I), 2,4-diamino-6-(2,5-dichlorophenyl)-1,3,5-triazine]
Inhibition Rate (stress ulcer) [1, 6]: 33% | Inhibition Rate (stress ulcer) [1, 7]: 45% | Inhibition Rate (stress ulcer) [1, 8]: 63% | Inhibition Rate (stress ulcer) [1, 9]: 70% | Inhibition Rate (stress ulcer) ([1]; 30 mg/kg, finely pulverized form): 85% | dose dependency of stress ulcer inhibition ([1]; finely pulverized form): linear dose dependency | activity on ulcer formation induced by stress ([1]; oral, 1 mg/kg, finely pulverized (compound of earlier invention)): effective | lethality (rats): no rats were killed | body weight increase [2]: body weight increase was inhibited | recovery of body weight ([2]; about 8 microns compared to about 50 microns): far faster | body weight increase inhibition (side effect) ([2]; average particle diameter about 8 microns): only transient and moderate | rate of recovery or cure of ulcers (ulcers; 1 mg/day, 4 weeks): 20.0% | rate of recovery or cure of ulcers (ulcers; 1 mg/day, 8 weeks): 50.0% | rate of recovery or cure of ulcers (ulcers; 2 mg/day, 4 weeks): 17.4% | rate of recovery or cure of ulcers (ulcers; 2 mg/day, 8 weeks): 47.8% | rate of recovery or cure of ulcers (ulcers; 4 mg/day, 4 weeks): 41.6% | rate of recovery or cure of ulcers (ulcers; 4 mg/day, 8 weeks): 56.1% | recovery rate of ulcer improvement, degree of ulcer, effect against subjective and non-subjective symptoms (ulcers; hospitalized patients, 4 mg group compared with other groups): marked superiority | increase in transaminase (GOT and GPT), cases ([3]; only side effect noted): one case | increase in transaminase (GOT and GPT), incidence ([3]; printed as % of the total): 1.8% | average particle diameter [4]: about 8 microns | Inhibition Rate (stress ulcer) ([5]; 0.37 mg/kg per os): 37% and 46% and 29% | Inhibition Rate (stress ulcer) ([5]; 3.72 mg/kg per os): 62% and 47% and 33% | activity on ulcer formation induced by stress ([5]; oral, 5 mg/kg): ineffective

Nc1nc(N)nc(-c2cc(Cl)ccc2Cl)n1 [Substance (II)]
Inhibition Rate (stress ulcer) [1, 6]: 35% | Inhibition Rate (stress ulcer) [1, 7]: 51% | Inhibition Rate (stress ulcer) [1, 8]: 70% | Inhibition Rate (stress ulcer) [1, 9]: 85% | dose dependency of stress ulcer inhibition ([1]; finely pulverized form): linear dose dependency | ED50 (stress ulcer inhibition) ([1]; per os, finely pulverized form, from Table 2 data): 0.90 mg/kg | body weight increase [2]: body weight increase was inhibited | improvement in body weight side effect ([2]; maleate salt according to the invention compared with maleate salt of about 50 microns): particularly dramatic

Reference: patent publication US4657907A, “Low dosage compositions of finely pulverized 2,4-diamino-6-(2,5-dichlorophenyl)-1,3,5-triazine and pharmaceutically acceptable acid addition salts thereof and administration thereof” (Nippon Shinyaku Co., Ltd., priority 1981, dated 1987)
